# Source: patent US12521393B2, “Cytotoxicity targeting chimeras for CCR2-expressing cells” (GLAXOSMITHKLINE INTELLECTUAL PROPERTY DEVELOPMENT LIMITED, priority 2021, dated 2026)
# Counter-ions that a name gives are not always drawn.
# How the values were obtained:
# [1] = target: anti-cotinine antibody (SEQ ID NO: 11/12, rabbit variable region with human IgG1 Fc DE mutation); assay: SPR binding of anti-cotinine antibody to ARM compounds, Biacore T200, 37° C. (Example 202); conditions: SPR Biacore T200, 37° C., pH 7.4, antibody SEQ ID NO: 11/12 captured on protein A; Kd in molar
# Protocol: Anti-cotinine antibodies having a heavy chain sequence of SEQ ID NO: 11 and a light chain sequence of SEQ ID NO: 12 (rabbit variable region with human IgG1 Fc domain containing a DE mutation (S239D/1332E)) were captured on one or more flow cells of a protein A sensor chip (Cytiva) using a Biacore T200 while reserving flow cell 1 as a reference. Following capture, a 3000 second wait step was included to reduce drift during compound analysis. ARM compounds of Formula (I) were then injected at 100 μL/min with 200 and 2000 second association and dissociation times. The entire experiment was run at 37° C. with running buffer containing 10 mM HEPES pH 7.4, 150 mM NaCl, 0.005% P20 and 1% DMSO. ARM compounds of Formula (I) were titrated with a top concentration of 200 nM using a 3-fold 5-point dilution series and a corresponding 5-injection buffer cycle was run for blank subtraction. Data were double referenced by subtracting the response of the reference flow cell from that of the antibody-containing flow cell and subsequently subtracting the referenced blank sensorgrams. Following compound analysis, the surface was regenerated using a 30 second injection of pH 1.5 glycine at a flow rate of 30 μL/min after which antibody was re-captured. The experiment was run using Biacore T200 control software and evaluated using Biacore T200 Evaluation software. Curves were fit with a 1:1 kinetic binding model to obtain kon (1/Ms), koff(1/s), Kd (M) determined as koff/kon, and residence time determined as 1/koff (s).
# Anti-cotinine antibody was tested for binding to ARMs compounds of Formula (I) of the invention in the above assay in or more experimental runs and the results are shown in Table 5 below. Affinity is reported as a pKd value. The pKd value is the negative log of the Kd value, wherein the Kd value is the dissociation constant measured in molar (M) as noted above. For compounds tested in more than one experimental run, the pKd value is reported as an average
# [2] = system: endogenous target monocytes in human PBMC; assay: PBMC ex vivo monocyte depletion flow cytometry assay (Example 200); type: cell-based; conditions: with anti-cotinine antibody (SEQ ID NO: 11/12), 18-24 hours, EC50 in molar, read-out: Ex Vivo Depletion Assay pEC50 (converted)
# Procedure, shortened: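 Monocyte depletion is reported as pEC50, averaged or given individually across runs, and read by flow cytometry staining CD45, CD14 and CD4 with a viability dye. Compounds, diluted four-fold over 11 points from 1 mM DMSO stocks, were combined with 30 μg/mL Fc-enhanced anti-cotinine antibody and human PBMC, then incubated 18-24 h at 37° C.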
# [3] = system: CCR2 expressing cells (CD11b+Ly6c+Hi) in peripheral blood; assay: In vivo depletion assay, flow cytometry of peripheral blood (Example 201); set-up: species or system human CCR2 knock-in mice (C57 background); conditions: hCCR2 knock-in mice, IV 0.1 mpk compound + 10 mpk anti-cotinine antibody (SEQ ID NO: 13/14), peripheral blood at 48 hr
# Procedure, shortened: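 Flow cytometry of blood collected at study termination quantified percent depletion of CD11b+Ly6c+Hi cells and CCR2 expression, using surface markers CD45, CD3, CD11b, Ly6C, human CCR2 after Fc block, with 7AAD viability stain. Compound given in saline:DMSO:PBS formulation, optionally combined with anti-cotinine antibody, incubated 30 min before administration.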
# [4] = target: human alpha1 nicotinic acetylcholine (nACh) receptor (Homo sapiens, UniProt P02708); assay: Nicotinic acetylcholine receptor antagonism assay, IONFlux automated patch clamp (Example 203); type: cell-based; conditions: for IC50: antagonism of ACh-stimulated human alpha1 nAChR current, patch clamp; for Emax at 10 µM: maximum percentage antagonism at maximum concentration tested 10 μM
# Protocol: Cells expressing human alpha1 nicotinic acetylcholine (nACh) receptor (nAChR) were washed and dissociated using Trypsin containing buffer. Cells were then washed and seeded at a density of 3-5 million cells/mL and allowed to grow for 3 days. Then, 60-80 μL of cells were added to plates and incubated with dose response of an ARM compound of Formula (I) with a top concentration of either 10 μM or 100 μM. The receptor was then stimulated via addition of acetylcholine (ACh) and activation of the receptor was monitored via the IONFlux automated patch clamp system. IonFlux Data Analyzer software was utilized to perform leak subtraction and measure (min) peak current amplitude.
# Data processing: (1) Current values recorded for vehicle only applications in individual traps/patterns were subtracted from corresponding current amplitude values for control, test article and control+test article. (2) Control response was calculated as % of the average response of the 3rd out of total 3 ACh (10 mM) applications alone. In rare situations, if the 3rd ACh response was obscured due to technical artifacts, the 2nd and/or 1st ACh (10 mM) application was considered as control. The peak current amplitude generated in the presence of each test article concentration was then used to calculate the % inhibition as compared to control response (10 mM ACh alone). These estimates were further corrected for vehicle response and run down corrected by normalizing with time matched control responses (10 mM ACh alone). The corrected percentages were then fit with a non-linear function in GraphPad Prism 6 (or later versions) to determine the IC50.
# Exclusion criteria: (i) any n's with poor recording quality, (ii) control current amplitude <500 pA or (iii) significant outliers, as determined by the Grubbs test.
# ARMs compounds of Formula (I) of the invention were tested for antagonism of the nAChR in the above assay in […] experimental runs and the results are shown in Table 7 below. Antagonistic activity of the compounds of Formula (I) of the invention is reported as an IC50 value (half maximal inhibitory concentration) and the maximum percentage antagonism observed at the highest concentration of compound of Formula (I) tested, as indicated in Table 7. For compounds tested in more than one experimental run, the IC50 value is reported as an average
# Sequence of human alpha1 nicotinic acetylcholine (nACh) receptor (P02708 21-457): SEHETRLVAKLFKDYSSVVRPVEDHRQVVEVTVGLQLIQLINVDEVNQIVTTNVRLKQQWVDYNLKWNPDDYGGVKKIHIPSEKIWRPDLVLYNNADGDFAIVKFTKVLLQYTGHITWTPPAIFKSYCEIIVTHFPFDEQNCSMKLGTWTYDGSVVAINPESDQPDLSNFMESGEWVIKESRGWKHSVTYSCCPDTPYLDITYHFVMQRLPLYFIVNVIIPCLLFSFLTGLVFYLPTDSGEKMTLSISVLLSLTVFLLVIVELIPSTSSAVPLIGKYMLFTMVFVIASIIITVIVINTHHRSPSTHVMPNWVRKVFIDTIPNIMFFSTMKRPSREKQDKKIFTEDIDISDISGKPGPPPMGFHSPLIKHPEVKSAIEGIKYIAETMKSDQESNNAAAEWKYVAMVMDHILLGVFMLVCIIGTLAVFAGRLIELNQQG
# Sequence of human alpha1 nicotinic acetylcholine (nACh) receptor (P11230 24-501 partner): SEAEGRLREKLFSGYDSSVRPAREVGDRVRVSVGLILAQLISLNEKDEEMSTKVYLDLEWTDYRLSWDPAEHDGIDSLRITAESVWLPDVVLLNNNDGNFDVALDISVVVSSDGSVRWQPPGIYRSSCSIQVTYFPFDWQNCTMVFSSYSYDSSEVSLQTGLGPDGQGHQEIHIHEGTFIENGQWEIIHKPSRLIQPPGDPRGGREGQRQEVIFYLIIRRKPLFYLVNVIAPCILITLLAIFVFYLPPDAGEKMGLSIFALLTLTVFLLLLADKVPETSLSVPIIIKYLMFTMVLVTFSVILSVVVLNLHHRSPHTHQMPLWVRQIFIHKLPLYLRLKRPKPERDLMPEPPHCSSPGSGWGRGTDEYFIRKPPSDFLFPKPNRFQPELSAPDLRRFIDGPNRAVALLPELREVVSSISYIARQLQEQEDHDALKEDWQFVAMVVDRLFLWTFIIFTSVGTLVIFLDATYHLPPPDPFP
# Sequence of human alpha1 nicotinic acetylcholine (nACh) receptor (Q07001 22-517 partner): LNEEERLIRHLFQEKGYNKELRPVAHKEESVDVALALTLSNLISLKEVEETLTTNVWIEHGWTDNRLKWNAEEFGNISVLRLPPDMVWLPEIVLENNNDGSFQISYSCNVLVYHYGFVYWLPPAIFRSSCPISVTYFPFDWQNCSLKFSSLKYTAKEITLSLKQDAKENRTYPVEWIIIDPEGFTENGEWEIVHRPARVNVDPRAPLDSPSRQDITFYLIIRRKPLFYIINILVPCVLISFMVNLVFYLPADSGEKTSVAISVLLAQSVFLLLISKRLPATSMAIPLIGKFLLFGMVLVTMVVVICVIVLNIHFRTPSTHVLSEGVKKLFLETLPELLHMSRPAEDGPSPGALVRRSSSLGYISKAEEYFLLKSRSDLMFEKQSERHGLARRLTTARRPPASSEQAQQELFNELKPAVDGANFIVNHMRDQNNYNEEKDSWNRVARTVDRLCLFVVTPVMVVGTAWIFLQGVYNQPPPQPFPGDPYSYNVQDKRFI
Compound,pKd of Antibody for ARM Compound of Formula (I) [1],EC50 [2] [nM],% Depletion of CCR2 expressing cells [3] [%],IC50 [4] [nM],"Emax at 100 µM ([4]; maximum percentage antagonism at maximum concentration tested 100 μM, read-out: Maximum Response) [%]",Emax at 10 µM ([4]; read-out: Maximum Response) [%]
"CC(C)N(C)[C@@H]1CC[C@H](N2CC[C@H](Nc3ncnc4ccc(C(F)(F)F)cc34)C2=O)[C@H](NC(=O)C2CCN(C(=O)CCOCCOCCOCCNC(=O)[C@H]3CC(=O)N(C)[C@@H]3c3cccnc3)CC2)C1 [Example 29, N-((1R,2S,5R)-5-(Isopropyl(methyl)amino)-2-((S)-2-oxo-3-((6-(trifluoromethyl)quinazolin-4-yl)amino)pyrrolidin-1-yl)cyclohexyl)-1-(1-((2S,3S)-1-methyl-5-oxo-2-(pyridin-3-yl)pyrrolidin-3-yl)-1-oxo-5,8,11-trioxa-2-azatetradecan-14-oyl)piperidine-4-carboxamide]",9.3345,2.51,–,–,–,–
"CC(C)N(C)[C@@H]1CC[C@H](N2CC[C@H](Nc3ncnc4ccc(C(F)(F)F)cc34)C2=O)[C@H](NC(=O)[C@H]2C[C@@H](NC(=O)CCOCCNC(=O)CCOCCNC(=O)[C@H]3CC(=O)N(C)[C@@H]3c3cccnc3)C2)C1 [Example 44, (2S,3S)-N-(2-(3-((2-(3-(((1S,3s)-3-(((1R,2S,5R)-5-(Isopropyl(methyl)amino)-2-((S)-2-oxo-3-((6-(trifluoromethyl)quinazolin-4-yl)amino)pyrrolidin-1-yl)cyclohexyl)carbamoyl)cyclobutyl)amino)-3-oxopropoxy)ethyl)amino)-3-oxopropoxy)ethyl)-1-methyl-5-oxo-2-(pyridin-3-yl)pyrrolidine-3-carboxamide]",–,0.631,91,≥ 100000,51.5,–
"CC(C)N(C)[C@@H]1CC[C@H](N2CC[C@H](Nc3ncnc4ccc(C(F)(F)F)cc34)C2=O)[C@H](NC(=O)c2ccc(C3CCN(CCOCCOCCNC(=O)[C@H]4CC(=O)N(C)[C@@H]4c4cccnc4)CC3)cn2)C1 [Example 94, N-((1R,2S,5R)-5-(Isopropyl(methyl)amino)-2-((S)-2-oxo-3-((6-(trifluoromethyl)quinazolin-4-yl)amino)pyrrolidin-1-yl)cyclohexyl)-5-(1-(2-(2-(2-((2S,3S)-1-methyl-5-oxo-2-(pyridin-3-yl)pyrrolidine-3-carboxamido)ethoxy)ethoxy)ethyl)piperidin-4-yl)picolinamide]",–,2,88.66,4660,–,67.1
"CC(C)N(C)[C@@H]1CC[C@H](N2CC[C@H](Nc3ncnc4ccc(C(F)(F)F)cc34)C2=O)[C@H](NC(=O)c2ccc(N3CCC(C(=O)NCCOCCOCCNC(=O)[C@H]4CC(=O)N(C)[C@@H]4c4cccnc4)CC3)cc2)C1 [Example 130, 1-(4-(((1R,2S,5R)-5-(Isopropyl(methyl)amino)-2-((S)-2-oxo-3-((6-(trifluoromethyl)quinazolin-4-yl)amino)pyrrolidin-1-yl)cyclohexyl)carbamoyl)phenyl)-N-(2-(2-(2-((2S,3S)-1-methyl-5-oxo-2-(pyridin-3-yl)pyrrolidine-3-carboxamido)ethoxy)ethoxy)ethyl)piperidine-4-carboxamide]",–,0.631,81.81,≥ 10000,–,16.8
"CC(C)N(C)[C@@H]1CC[C@H](N2CC[C@H](Nc3ncnc4ccc(C(F)(F)F)cc34)C2=O)[C@H](NC(=O)[C@H]2CC[C@H](c3ccc(C(=O)NCCOCCOCCNC(=O)[C@H]4CC(=O)N(C)[C@@H]4c4cccnc4)cc3)CC2)C1 [Example 140, (2S,3S)-N-(2-(2-(2-(4-((1R,4r)-4-(((1R,2S,5R)-5-(Isopropyl(methyl)amino)-2-((S)-2-oxo-3-((6-(trifluoromethyl)quinazolin-4-yl)amino)pyrrolidin-1-yl)cyclohexyl)carbamoyl)cyclohexyl)benzamido)ethoxy)ethoxy)ethyl)-1-methyl-5-oxo-2-(pyridin-3-yl)pyrrolidine-3-carboxamide]",–,0.398,89.13,≥ 10000,–,18.2
"CC(C)N(C)[C@@H]1CC[C@H](N2CC[C@H](Nc3ncnc4ccc(C(F)(F)F)cc34)C2=O)[C@H](NC(=O)C2CCN(c3ccc(C(=O)NCCOCCOCCNC(=O)[C@H]4CC(=O)N(C)[C@@H]4c4cccnc4)cc3)CC2)C1 [Example 142, N-((1R,2S,5R)-5-(Isopropyl(methyl)amino)-2-((S)-2-oxo-3-((6-(trifluoromethyl)quinazolin-4-yl)amino)pyrrolidin-1-yl)cyclohexyl)-1-(4-((2-(2-(2-((2S,3S)-1-methyl-5-oxo-2-(pyridin-3-yl)pyrrolidine-3-carboxamido)ethoxy)ethoxy)ethyl)carbamoyl)phenyl)piperidine-4-carboxamide]",–,0.398,79.27,≥ 10000,–,13.1
"CC(C)N(C)[C@@H]1CC[C@H](N2CC[C@H](Nc3ncnc4ccc(C(F)(F)F)cc34)C2=O)[C@H](NC(=O)[C@H]2CC[C@@H](NC(=O)COCCOCCNC(=O)CNC(=O)[C@H]3CC(=O)N(C)[C@@H]3c3cccnc3)CC2)C1 [Example 171, (2S,3S)-N-(2-((2-(2-(2-(((1S,4s)-4-(((1R,2S,5R)-5-(Isopropyl(methyl)amino)-2-((S)-2-oxo-3-((6-(trifluoromethyl)quinazolin-4-yl)amino)pyrrolidin-1-yl)cyclohexyl)carbamoyl)cyclohexyl)amino)-2-oxoethoxy)ethoxy)ethyl)amino)-2-oxoethyl)-1-methyl-5-oxo-2-(pyridin-3-yl)pyrrolidine-3-carboxamide]",8.7865,–,–,–,–,–
"CC(C)N(C)[C@@H]1CC[C@H](N2CC[C@H](Nc3ncnc4ccc(C(F)(F)F)cc34)C2=O)[C@H](NC(=O)CCOCCN2CCC3(CCC(C(=O)NCCNC(=O)[C@H]4CC(=O)N(C)[C@@H]4c4cccnc4)CC3)CC2)C1 [Example 184, 3-(2-(3-(((1R,2S,5R)-5-(isopropyl(methyl)amino)-2-((S)-2-oxo-3-((6-(trifluoromethyl)quinazolin-4-yl)amino)450yridine450ne-1-yl)cyclohexyl)amino)-3-oxopropoxy)ethyl)-N-(2-((2S,3S)-1-methyl-5-oxo-2-(450yridine-3-yl)pyrrolidine-3-carboxamido)ethyl)-3-azaspiro[5.5]undecane-9-carboxamide, 3Formic acid salt]",–,0.251,85.99,6390,–,69.2
